# Like-named read-outs stand apart in the source and are kept apart here.
# Columns and labels:
# [1] = tested on: Vancomycin-resistant S. aureus NARSA VRS4; assay: microbe, parasite or virus in culture; type: cell-based, Staphylococcus aureus
# Cytotoxicity MTT assay [2] = type: cell-based, human; conditions: human
# [3] = tested on: Vancomycin-intermediate S. aureus NRS1; assay: microbe, parasite or virus in culture; conditions: for MIC VISA: Vancomycin-intermediate NRS1
# Procedure, shortened: (§1)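 Each compound was serially diluted twofold in Mueller Hinton broth, spanning 8 to 0.003 µg mL^−1, and incubated with bacteria for 24 h at 37 °C before visual scoring of growth.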
# [4] = tested on: Vancomycin-resistant (VanA) Enterococcus faecium ATCC 51559; assay: microbe, parasite or virus in culture; conditions: for MIC VRE: ATCC 51559
# Procedure, shortened: as §1
# [5] = tested on: Multi-drug-resistant S. pneumoniae ATCC 700677; assay: microbe, parasite or virus in culture; conditions: for MIC MDR S.P.: ATCC 700677
# Procedure, shortened: as §1
# Cytotoxicity MTT assay [6] = type: cell-based, human; conditions: human; remark: listed apart in the source
# Procedure, shortened: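 HepG2 and HEK293 cells, 1.5 × 10^4 per well in DMEM with 1% FBS, were allowed to attach for 24 h, then exposed 24 h at 37 °C to compounds at 100 µM to 0.046 µM in threefold steps. MTT (0.4 mg mL^−1) was added for 2 h, and formazan in DMSO was read at 570 nm. Viability is given as percent of control, corrected for a positive control.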
# [7] = tested on: Methicillin-resistant S. aureus ATCC 43300; assay: microbe, parasite or virus in culture; conditions: for MIC: Staphylococcus aureus, ATCC43300|MRSA
# Procedure, shortened: as §1
# [8] = tested on: Methicillin-sensitive S. aureus ATCC 29213; assay: microbe, parasite or virus in culture; type: cell-based, Staphylococcus aureus; conditions: for MIC: Staphylococcus aureus, ATCC 29213 / MSSA
# Method: Antimicrobial activity of compounds was tested against a number of bacterial strains by broth microdilution (BMD) assay with MIC determination, including S. aureus (MSSA ATCC® 29213™, MRSA ATCC® 43300™, VISA NARSA NRS1, VISA NARSA NRS4), Streptococcus pneumoniae (MDR ATCC® 700677™) and Enterococcus faecium (MDR VanA ATCC® 51559™). ATCC strains were sourced from the American Type Culture Collection and NRS strains from NARSA (Network on Antimicrobial Resistance in S. aureus) via BEI Resources (www.beiresources.org). All compounds were prepared to 160 µg mL^−1 solution in water from a stock solution of 1 mM concentration.
# […] […] Standards ranged from 64 to 0.03 µg mL^−1 and compounds from 8 to 0.003 µg mL^−1 with final assay volumes of 100 µL per well. Gram-positive bacteria were cultured in Mueller Hinton broth (MHB) (Bactolaboratories, Cat. no. 211443) at 37 °C overnight. A sample of each culture was then diluted 40-fold in fresh MHB and incubated at 37 °C for 2–3 h. The resultant mid-log phase cultures were added to the compound-containing 96-well plates to give a final cell density of 5 × 10^5 colony forming unit (CFU) mL^−1. All the plates were covered and incubated at 37 °C for 24 h. MICs were the lowest concentration showing no visible growth.
SMILES,CC50 at 24 h (Cytotoxicity MTT assay [2]) [µM],MIC VISA [3] [µg/mL],MIC VRE [4] [µg/mL],MIC MDR S.P. [5] [µg/mL],CC50 at 24 h (Cytotoxicity MTT assay [6]) [µM],"MIC S. aureus ATCC 43300 MRSA, NBS [7] [µg/mL]","MIC S. aureus ATCC 43300 MRSA, PP [7] [µg/mL]","MIC S. aureus ATCC 43300 MRSA, PS [7] [µg/mL]","MIC S. aureus ATCC 43300 MRSA, PS+P-80 [7] [µg/mL]","MIC S. aureus ATCC29213 MSSA, PP ([8]; ATCC 29213) [µg/mL]","MIC S. aureus ATCC29213 MSSA, PS ([8]; ATCC 29213) [µg/mL]","MIC S. aureus ATCC29213 MSSA, PS+P-80 ([8]; ATCC 29213) [µg/mL]",other results
"CN[C@H](CC(C)C)C(=O)N[C@H]1C(=O)N[C@@H](CC(N)=O)C(=O)N[C@H]2C(=O)N[C@H]3C(=O)N[C@H](C(=O)N[C@H](C(=O)O)c4cc(O)cc(O)c4-c4cc3ccc4O)[C@H](O[C@H]3C[C@](C)(N)[C@@H](O)[C@H](C)O3)c3ccc(c(Cl)c3)Oc3cc2cc(c3O[C@@H]2O[C@H](CO)[C@@H](O)[C@H](O)[C@H]2O[C@H]2C[C@](C)(NCc3ccc(-c4ccc(Cl)cc4)cc3)[C@@H](O)[C@H](C)O2)Oc2ccc(cc2Cl)[C@H]1O [Compound 5, Oritavancin, reference compound]",,,,,,,,,,,,,"MIC ([1]; Staphylococcus aureus, VRSA, read-out: MIC VRSA): 0.125 µg/mL; CC50 at 24 h (Cytotoxicity MTT assay [2]; 24 h, MTT, 1% FBS, read-out: Cytotoxicity CC50 HepG2): 25 µM; MIC ([3]; Staphylococcus aureus, NRS1 / VISA, read-out: MIC VISA): 1 µg/mL; MIC ([4]; Enterococcus faecium, ATCC51559 / VRE, read-out: MIC VRE): 0.125 µg/mL; MIC ([5]; Streptococcus pneumoniae, ATCC700677, read-out: MIC MDR S.P.): 0.06 µg/mL; CC50 at 24 h (Cytotoxicity MTT assay [6]; 24 h, MTT, 1% FBS, read-out: Cytotoxicity CC50 HEK293): 29 µM; MIC ([7]; 24 h, read-out: MIC MRSA, S. aureus ATCC 43300, NBS plates, MHB, 24 h, substance alone): 0.06 µg/mL; MIC ([7]; read-out: MIC S. aureus ATCC 43300 MRSA, NBS, non-binding surface plate): ≤ 0.016 µg/mL; MIC ([7]; read-out: MIC S. aureus ATCC 43300 MRSA, PP, polypropylene plate): 1 µg/mL; MIC ([7]; read-out: MIC S. aureus ATCC 43300 MRSA, PS+P-80, polystyrene plate with 0.002% polysorbate-80): ≤ 0.016 µg/mL; MIC ([7]; read-out: MIC S. aureus ATCC 43300 MRSA, PS, polystyrene plate, no polysorbate-80): 1 µg/mL; MIC ([8]; read-out: MIC MSSA): ≤ 0.016 µg/mL; MIC ([8]; read-out: MIC S. aureus ATCC29213 MSSA, NBS): ≤ 0.016 µg/mL; MIC ([8]; read-out: MIC S. aureus ATCC29213 MSSA, PP): 1 µg/mL; MIC ([8]; read-out: MIC S. aureus ATCC29213 MSSA, PS): 1 µg/mL; MIC ([8]; read-out: MIC S. aureus ATCC29213 MSSA, PS+P-80): 0.031 µg/mL"
"CCCCCCCCCCC(=O)N[C@@H](CCCCN)C(=O)N[C@@H](CCCCN)C(=O)N[C@@H](CCCCNC(=O)[C@H]1NC(=O)[C@H]2NC(=O)[C@H](NC(=O)[C@@H]3NC(=O)[C@H](CC(N)=O)NC(=O)[C@H](NC(=O)[C@@H](CC(C)C)NC)[C@H](O)c4ccc(c(Cl)c4)Oc4cc3cc(c4O[C@@H]3O[C@H](CO)[C@@H](O)[C@H](O)[C@H]3O[C@H]3C[C@](C)(N)[C@H](O)[C@H](C)O3)Oc3ccc(cc3Cl)[C@H]2O)c2ccc(O)c(c2)-c2c(O)cc(O)cc21)C(=O)O [Compound 19, nC10CO-KK-K(Vancomycin)-OH]",290,0.5,6,0.06,355,≤ 0.016,0.06 to 0.125,0.063,0.063,0.125 to 0.25,0.03 to 0.06,0.031,"MIC VRSA ([1]; Vancomycin-resistant NARSA VRS4): 1 µg/mL; MIC MRSA ([7]; ATCC 43300, 24 h): 0.03 µg/mL; MIC S. aureus ATCC29213 MSSA, NBS ([8]; ATCC 29213): ≤ 0.016 µg/mL"
"CNC(=O)[C@H](CCCCNC(=O)[C@H]1NC(=O)[C@H]2NC(=O)[C@H](NC(=O)[C@@H]3NC(=O)[C@H](CC(N)=O)NC(=O)[C@H](NC(=O)[C@@H](CC(C)C)NC)[C@H](O)c4ccc(c(Cl)c4)Oc4cc3cc(c4O[C@@H]3O[C@H](CO)[C@@H](O)[C@H](O)[C@H]3O[C@H]3C[C@](C)(N)[C@H](O)[C@H](C)O3)Oc3ccc(cc3Cl)[C@H]2O)c2ccc(O)c(c2)-c2c(O)cc(O)cc21)NC(=O)[C@H](CCCCN)NC(=O)[C@H](CCCCN)NC(=O)[C@H](CCCCNC(=O)c1ccc(Oc2ccccc2)cc1)NC(=O)c1ccc(Oc2ccccc2)cc1 [Compound 24, POB2K-KK-K(Vancomycin)-NHMe]",100,0.125,0.5,<0.003,140,≤ 0.016,1,2,≤ 0.016,1,2,0.031,MIC VRSA ([1]; S. aureus NARSA VRS4): 0.08 µg/mL; MIC MSSA ([8]; ATCC 29213): ≤0.016 µg/mL
